One assay concerns P. aeruginosa bacteria. Kind of assay: Pyocyanin level in culture supernatant after treatment. In kind it is cell-based. The following applies: for bacteria pyocyanin relative to untreated control: single treatment, culture supernatant. The procedure:
Shown is bacteria pyocyanin relative to untreated control. […] When P. aeruginosa bacteria are exposed to treatments along x-axis, the supernatant of the culture is tested for pyocyanin level.

In the next assay the test system is PA14. Kind of assay: Pyocyanin production in bacterial cultures. In kind it is cell-based, Pseudomonas aeruginosa. Conditions: antibiotic alone. The text has this: Deletion of type-IV pili is shown to attenuate virulence in P. aeruginosa, by impairing pyocyanin production, twitching motility, and biofilm formation (Persat et al. (2015) Proc. Natl. Acad. Sci. 112:7563-7568). Phage TIVP-H6 selects for phage resistance in P. aeruginosa via bacterial alteration or loss of type-IV pili.

As for `CC[C@H]1OC(=O)[C@H](C)[C@@H](O[C@H]2C[C@@](C)(OC)[C@@H](O)[C@H](C)O2)[C@H](C)[C@@H](O[C@@H]2O[C@H](C)C[C@H](N(C)C)[C@H]2O)[C@](C)(O)C[C@@H](C)C(=O)[C@H](C)[C@@H](O)[C@]1(C)O` [Eythromycin], in the assay with P. aeruginosa bacteria, the “killing of bacteria in the pyocyanin assay” value is given as “does not kill bacteria in this assay” and the “bacteria pyocyanin relative to untreated control” value is recorded as “causes reduced pyocyanin production”.

`CCn1cc(C(=O)O)c(=O)c2ccc(C)nc21` [Nalidixic acid]: the “bacteria pyocyanin relative to untreated control” value with P. aeruginosa bacteria is listed as “do not reducte production”.

In the case of `CC1(C)S[C@@H]2[C@H](NC(=O)C(C(=O)O)c3ccccc3)C(=O)N2[C@H]1C(=O)O` (stereo partly drawn) [Carbenicillin], in the assay on P. aeruginosa bacteria, the “bacteria pyocyanin relative to untreated control” value is given as “do not reducte production”.

Regarding `O=C(O)c1cn(C2CC2)c2cc(N3CCNCC3)c(F)cc2c1=O` [Ciprofloxacin], the “bacteria pyocyanin relative to untreated control” value in the assay on P. aeruginosa bacteria is “do not reducte production”. Also, the “effect of antibiotic on pyocyanin production” value with PA14 is on record as “either increased or did not affect”.

The record behind these values is patent US20230074892A1, “BACTERIOPHAGE COMPOSITIONS AND USES THEREOF” (YALE UNIVERSITY, priority 2019, published 2023).
